What was measured:
[1] = molecular target: T1, GAβ-dependent amyloid fibril formation (Human Aβ1-40 + GM1-containing liposome) (Homo sapiens, UniProt P05067); assay: Thioflavin T (ThT) assay of GAβ-dependent amyloid fibril formation (Aβ1-40 with GM1-containing liposome); assay type: biochemical; conditions: inhibition rate against amyloid fibril formation, final concentration of the compound 25 μM; read-out: Inhibitory activity ABC evaluation
T1 construct: Human Aβ1-40 (cat. #4307-v, prepared by Peptide Institute); purchased Peptide Institute 4307-v
Summary of the method: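 Human Aβ1-40 (75 μM stock) pre-incubated 10 min at room temperature with compound (75 or 15 μM solution), then GM1-containing cholesterol/sphingomyelin liposome added and incubated 37° C, 18 hours. Fibrils quantified by ThT fluorescence (ex 430/em 490 nm, pH 8.5 glycine buffer); inhibition as ratio to compound-free control.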

T1 sequence (P05067 672-711 limits assumed): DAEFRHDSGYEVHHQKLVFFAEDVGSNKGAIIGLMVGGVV

SMILES | inhibition at 25 µM [1] | melting point
CCCN(C(=O)Cc1nc(-c2ccc(OC)cc2)no1)c1cccc(Cl)c1 [Compound 1, N-(3-chlorophenyl)-2-{3-(4-methoxyphenyl)-1,2,4-oxadiazol-5-yl}-N-propylacetamide] | < 40% | 108 °C
CCCN(C(=O)CCc1nc(-c2ccc(OC)cc2)no1)c1cccc(Cl)c1 [Compound 2, N-(3-chlorophenyl)-3-{3-(4-methoxyphenyl)-1,2,4-oxadiazol-5-yl}-N-propylpropanamide] | 40 to 80% | 85 °C
COc1ccc(-c2noc(CCC(=O)N(CCO)c3cccc(Cl)c3)n2)cc1 [Compound 3, N-(3-chlorophenyl)-N-(2-hydroxyethyl)-3-{3-(4-methoxyphenyl)-1,2,4-oxadiazol-5-yl}propanamide] | < 40% | 95 °C
COc1ccc(-c2noc(CCC(=O)Nc3cc(Cl)ccn3)n2)cc1 [Compound 4, N-(4-chloropyridin-2-yl)-3-{3-(4-methoxyphenyl)-1,2,4-oxadiazol-5-yl}propanamide] | < 40% | 167 °C
COc1ccc(-c2noc(CCC(=O)N(CCCO)c3cccc(Cl)c3)n2)cc1 [Compound 6, N-(3-chlorophenyl)-N-(3-hydroxypropyl)-3-{3-(4-methoxyphenyl)-1,2,4-oxadiazol-5-yl}propanamide] | 40 to 80% | 80 °C
O=C(N[C@@H](CO)c1nc(-c2c[nH]c3cc(F)ccc23)no1)c1ccc(F)cc1 [Compound 260, 4-fluoro-N-[(1S)-1-[3-(6-fluoro-1H-indol-3-yl)-1,2,4-oxadiazol-5-yl]-2-hydroxyethyl] benzamide] | 40 to 80% | 
COc1ccc2[nH]cc(-c3noc([C@H](CO)NC(=O)c4ccc(F)cc4)n3)c2c1 [Compound 261, 4-fluoro-N-[(1S)-2-hydroxy-1-[3-(5-methoxy-1H-indol-3-yl)-1,2,4-oxadiazol-5-yl]ethyl] benzamide] | 40 to 80% | 
O=C(N[C@@H](CO)c1nc(-c2c[nH]c3ccc(C(F)(F)F)cc23)no1)c1ccc(F)cc1 [Compound 262, 4-fluoro-N-[(1S)-2-hydroxy-1-{3-[5-(trifluoromethyl)-1H-indol-3-yl]-1,2,4-oxadiazol-5-yl}ethyl] benzamide] | 40 to 80% | 
O=C(N[C@@H](CO)c1nc(-c2c[nH]c3cc(Cl)ccc23)no1)c1ccc(F)cc1 [Compound 263, N-[(1S)-1-[3-(6-chloro-1H-indol-3-yl)-1,2,4-oxadiazol-5-yl]-2-hydroxyethyl]-4-fluorobenzamide] | 40 to 80% | 

Next, values leading:

inhibition at 25 µM [1] | melting point | SMILES
40 to 80% |  | O=C(N[C@@H](CO)c1nc(-c2cn(CCO)c3ccccc23)no1)c1ccc(F)cc1 [Compound 264]
40 to 80% |  | O=C(N[C@@H](CO)c1nc(-c2n[nH]c3ccccc23)no1)c1ccc(F)cc1 [Compound 265, 4-fluoro-N-[(1S)-2-hydroxy-1-[3-(1H-indazol-3-yl)-1,2,4-oxadiazol-5-yl]ethyl] benzamide]
> 80% |  | O=C(N[C@@H](CO)c1nc(-c2cc3ccccc3[nH]2)no1)c1ccc(F)cc1 [Compound 266, 4-fluoro-N-[(1S)-2-hydroxy-1-[3-(1H-indol-2-yl)-1,2,4-oxadiazol-5-yl]ethyl] benzamide]
> 80% |  | O=C(N[C@@H](CO)c1nc(-c2cc3cc(F)ccc3[nH]2)no1)c1ccc(F)cc1 [Compound 267, 4-fluoro-N-[(1S)-1-[3-(5-fluoro-1H-indol-2-yl)-1,2,4-oxadiazol-5-yl]-2-hydroxyethyl] benzamide]

Source: patent publication US10538516B2, “Oxadiazole derivative and pharmaceutical containing same” (National Center for Geriatrics and Gerontology, priority 2015, dated 2020)
